pEC50, pIC50: −log10 of the molar value. Like-named read-outs stand apart in the source and are kept apart here.
Columns and labels:
glioblastoma cell lines = assay: Glioblastoma growth inhibition by Xalkori (cell-based assay, FIG. 3); settings: depending on the cell line (FIG. 3)
Procedure: Five tumor-derived cell lines were treated with the ROS inhibitor compounds and cell survival was monitored to determine the cancer prohibition effects of the compounds. The cell lines included HeLa, a cervical cancer cell line, and four glioblastoma cell lines U138, U87, LN18, and U118. The basic protocol for the in-vitro cell survival assay is the same for all five cell lines. In particular, the cells were seeded in 96-well plates at 2-5×10^3 cells/well (cell line dependent) in culture medium. The cells were grown for 2 days before the compounds were dissolved in DMSO and added to final concentrations of 100 uM, 10 uM, or 1 uM (DMSO final concentration 0.5%). The cell culture was then assayed one day after the addition of the compounds. The assay used Alamar blue as a redox-sensitive dye that interrogates mitochondrial fitness of cells, and these assays provided a readout for cell proliferation and viability. The raw values were normalized to an average of several vehicle control wells and are presented as percent decrease in proliferation/viability, which is converted to half maximal effective concentration (EC50) values.
FIG. 3: Potency, selectivity and growth inhibitory effects of Xalkori in in vitro kinase and cell-based assays. […] U138 and U118 have been documented to express aberrant ROS (FIG-ROS fusion). […]

ROS [1] = target: T1, ROS (Homo sapiens, UniProt P08922); settings: reported in background; cited from earlier work
EGFR = target: T2, EGFR (Homo sapiens, UniProt P00533); assay: In vitro EGFR enzymatic reaction assay (HTRF, Cisbio); format: biochemical
T2 construct: ROS or EGFR enzyme, 0.008 ng/ul

ROS [2] = target: T1, ROS; assay: In vitro ROS enzymatic reaction assay (HTRF, Cisbio); format: biochemical; parameters: ROS or EGFR enzyme, 0.008 ng/ul; settings: for inhibition at 5 µM: ROS kinase, compound at 5 uM, read-out: Kinase Inhib. 5 uM (%)
Procedure: The ROS enzymatic reactions were carried out with a high throughput screening platform for phosphor-detection of kinase activity. This platform based on homogeneous time resolved fluorescence (HTRF) technology from Cisbio Bioassays, Inc. (Cisbio). […] The reaction was allowed to proceed for 30 minutes at room temperature. An equal volume of detection buffer was then added to the reaction mix.

[3] = system: U138 glioblastoma cell line; assay: In-vitro cell survival assay (Alamar blue), U138; format: cell-based; settings: 24 h; U138, one day after compound addition
How it was run: (§1)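 Cells seeded at 2-5×10^3 per well, grown 2 days, then exposed to compound at 100, 10 or 1 uM (0.5% DMSO final) for one day. Alamar blue redox dye read as proliferation/viability, normalized to vehicle wells as percent decrease and converted to EC50.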

[4] = system: HeLa cervical cancer cell line; assay: In-vitro cell survival assay (Alamar blue), HeLa; format: cell-based; settings: Homo sapiens, 24 h, one day after compound addition
How it was run: as §1

[5] = system: U87 glioblastoma cell line; assay: In-vitro cell survival assay (Alamar blue), U87; format: cell-based; settings: 24 h; U87, one day after compound addition
How it was run: as §1

[6] = system: LN18 glioblastoma cell line; assay: In-vitro cell survival assay (Alamar blue), LN18; format: cell-based; settings: Homo sapiens, LN-18, 24 h; LN18, one day after compound addition
How it was run: as §1

[7] = system: U118 glioblastoma cell line; assay: In-vitro cell survival assay (Alamar blue), U118; format: cell-based; settings: 24 h; U118, one day after compound addition
How it was run: as §1

T1 sequence (P08922 28-2347): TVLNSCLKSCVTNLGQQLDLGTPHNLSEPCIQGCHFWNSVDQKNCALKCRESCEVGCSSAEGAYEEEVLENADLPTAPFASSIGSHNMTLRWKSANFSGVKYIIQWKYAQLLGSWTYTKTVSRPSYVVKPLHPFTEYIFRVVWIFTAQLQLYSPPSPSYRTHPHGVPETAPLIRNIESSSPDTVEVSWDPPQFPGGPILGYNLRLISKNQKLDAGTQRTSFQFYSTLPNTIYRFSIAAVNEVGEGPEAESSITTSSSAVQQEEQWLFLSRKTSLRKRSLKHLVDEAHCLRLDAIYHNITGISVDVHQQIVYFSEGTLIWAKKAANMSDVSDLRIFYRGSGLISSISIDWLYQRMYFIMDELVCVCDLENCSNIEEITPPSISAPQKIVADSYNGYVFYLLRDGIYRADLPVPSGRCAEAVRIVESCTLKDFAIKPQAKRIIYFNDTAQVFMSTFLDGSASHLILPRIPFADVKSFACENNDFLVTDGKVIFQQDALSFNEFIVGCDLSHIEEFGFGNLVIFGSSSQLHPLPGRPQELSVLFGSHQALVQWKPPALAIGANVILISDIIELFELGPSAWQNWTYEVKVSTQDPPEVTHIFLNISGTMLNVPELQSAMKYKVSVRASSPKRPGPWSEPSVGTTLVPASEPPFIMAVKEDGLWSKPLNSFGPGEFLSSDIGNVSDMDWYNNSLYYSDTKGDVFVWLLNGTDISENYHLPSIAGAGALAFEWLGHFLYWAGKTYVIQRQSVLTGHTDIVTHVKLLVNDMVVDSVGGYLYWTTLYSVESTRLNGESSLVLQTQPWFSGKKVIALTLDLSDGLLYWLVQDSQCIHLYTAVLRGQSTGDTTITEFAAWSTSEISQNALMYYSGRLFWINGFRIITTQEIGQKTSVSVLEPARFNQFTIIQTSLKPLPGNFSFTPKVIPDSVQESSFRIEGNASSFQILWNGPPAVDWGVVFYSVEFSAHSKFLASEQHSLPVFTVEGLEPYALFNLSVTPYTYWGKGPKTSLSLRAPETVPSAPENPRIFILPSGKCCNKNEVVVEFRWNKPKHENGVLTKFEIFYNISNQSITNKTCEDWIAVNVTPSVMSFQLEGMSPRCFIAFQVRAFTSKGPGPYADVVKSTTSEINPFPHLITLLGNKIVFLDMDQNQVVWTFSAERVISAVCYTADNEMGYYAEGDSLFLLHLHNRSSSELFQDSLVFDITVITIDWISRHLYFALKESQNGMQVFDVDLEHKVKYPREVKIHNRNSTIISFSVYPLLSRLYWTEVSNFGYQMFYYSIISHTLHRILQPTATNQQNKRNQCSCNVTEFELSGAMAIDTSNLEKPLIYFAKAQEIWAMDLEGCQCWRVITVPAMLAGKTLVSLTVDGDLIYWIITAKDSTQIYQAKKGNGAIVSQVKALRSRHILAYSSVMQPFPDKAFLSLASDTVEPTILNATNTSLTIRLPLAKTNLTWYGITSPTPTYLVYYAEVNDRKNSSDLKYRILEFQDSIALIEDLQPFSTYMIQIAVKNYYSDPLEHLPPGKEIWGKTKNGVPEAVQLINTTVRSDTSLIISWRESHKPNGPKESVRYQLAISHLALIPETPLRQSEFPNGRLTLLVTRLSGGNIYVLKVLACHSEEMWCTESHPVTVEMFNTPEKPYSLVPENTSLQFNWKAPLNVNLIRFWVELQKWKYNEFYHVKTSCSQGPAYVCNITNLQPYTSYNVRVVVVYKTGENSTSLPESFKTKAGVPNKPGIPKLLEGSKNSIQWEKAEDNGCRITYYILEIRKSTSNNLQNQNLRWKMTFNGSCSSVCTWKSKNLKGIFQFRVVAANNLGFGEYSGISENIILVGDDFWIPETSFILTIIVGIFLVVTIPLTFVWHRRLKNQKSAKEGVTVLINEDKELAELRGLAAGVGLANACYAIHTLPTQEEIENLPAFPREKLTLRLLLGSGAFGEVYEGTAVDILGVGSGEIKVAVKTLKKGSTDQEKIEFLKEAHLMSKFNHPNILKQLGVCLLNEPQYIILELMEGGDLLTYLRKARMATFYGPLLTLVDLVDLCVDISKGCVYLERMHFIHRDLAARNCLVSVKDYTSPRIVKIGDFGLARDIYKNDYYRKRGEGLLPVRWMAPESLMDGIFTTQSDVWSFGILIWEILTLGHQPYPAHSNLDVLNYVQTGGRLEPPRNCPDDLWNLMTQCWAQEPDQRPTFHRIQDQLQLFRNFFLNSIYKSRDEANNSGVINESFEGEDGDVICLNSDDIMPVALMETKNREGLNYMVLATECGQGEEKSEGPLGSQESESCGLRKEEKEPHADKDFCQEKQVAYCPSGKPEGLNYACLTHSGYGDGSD
T2 sequence (P00533 25-1210, species assumed): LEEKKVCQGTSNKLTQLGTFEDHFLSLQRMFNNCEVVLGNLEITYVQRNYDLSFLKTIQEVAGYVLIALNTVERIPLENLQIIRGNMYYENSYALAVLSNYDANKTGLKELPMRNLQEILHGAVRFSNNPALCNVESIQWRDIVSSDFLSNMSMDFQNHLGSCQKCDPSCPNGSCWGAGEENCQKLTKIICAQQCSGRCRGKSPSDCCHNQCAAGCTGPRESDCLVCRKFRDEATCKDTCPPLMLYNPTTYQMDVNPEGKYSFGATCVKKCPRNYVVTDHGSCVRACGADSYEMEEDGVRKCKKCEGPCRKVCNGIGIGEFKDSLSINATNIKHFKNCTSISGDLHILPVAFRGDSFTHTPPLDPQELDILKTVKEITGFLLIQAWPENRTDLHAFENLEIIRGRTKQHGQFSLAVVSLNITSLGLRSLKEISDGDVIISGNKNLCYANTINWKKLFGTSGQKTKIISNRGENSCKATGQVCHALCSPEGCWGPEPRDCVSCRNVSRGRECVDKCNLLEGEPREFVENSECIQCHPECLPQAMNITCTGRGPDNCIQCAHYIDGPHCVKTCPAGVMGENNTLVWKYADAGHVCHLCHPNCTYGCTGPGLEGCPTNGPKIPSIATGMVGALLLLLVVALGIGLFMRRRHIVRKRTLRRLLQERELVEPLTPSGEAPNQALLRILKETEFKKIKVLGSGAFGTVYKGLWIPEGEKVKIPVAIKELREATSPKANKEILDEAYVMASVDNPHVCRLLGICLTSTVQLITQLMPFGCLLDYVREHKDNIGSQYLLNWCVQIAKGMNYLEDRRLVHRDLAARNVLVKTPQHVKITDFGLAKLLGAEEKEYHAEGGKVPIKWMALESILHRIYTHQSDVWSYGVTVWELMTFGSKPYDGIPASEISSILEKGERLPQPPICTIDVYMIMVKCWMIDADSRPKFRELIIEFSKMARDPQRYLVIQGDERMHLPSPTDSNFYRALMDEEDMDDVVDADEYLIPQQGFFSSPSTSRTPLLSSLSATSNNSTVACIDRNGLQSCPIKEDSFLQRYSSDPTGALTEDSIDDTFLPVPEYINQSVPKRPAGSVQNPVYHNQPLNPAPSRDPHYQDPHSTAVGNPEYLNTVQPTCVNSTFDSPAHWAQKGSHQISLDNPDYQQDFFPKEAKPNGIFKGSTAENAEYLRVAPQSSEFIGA

SMILES	pEC50 (glioblastoma cell lines)	pIC50 (EGFR)	pIC50 (ROS [2])	inhibition at 5 µM (ROS [2]) [%]	pIC50 (ROS [1])	pEC50 [3]	pEC50 [4]	pEC50 [5]	pEC50 [6]	pEC50 [7]
C[C@@H](Oc1cc(-c2cnn(C3CCNCC3)c2)cnc1N)c1c(Cl)ccc(F)c1Cl [Crizotinib]	7.70 to 7.92									
Cc1cc(O)cc(-c2nn(CC#N)cc2-c2ccnc(-c3cccnc3)c2)c1 [KIST301080]					6.68					
Clc1nccc(Nc2cc(C3CC3)[nH]n2)n1 [drawing 298]		< 4.30	5.68	38.4						
C1=C(c2cccc(Nc3nccc(Nc4ccc5ncsc5c4)n3)c2)CCNC1 [drawing 304]		< 5.30	7.39	101						
COc1ccc(C2=CCNCC2)cc1Nc1nccc(Nc2ccc3ncsc3c2)n1 [drawing 330]		6.10	8.52	100						
O=C(NCCc1ccccc1)c1cccc(Nc2nccc(Nc3ccc4ncsc4c3)n2)c1 [drawing 418]						4.42	4.82	4.89	4.96	4.62
Cc1ccc(CNC(=O)c2cccc(Nc3nccc(Nc4ccc5ncsc5c4)n3)c2)o1 [drawing 419]						4.72	5.00	4.80	5.15	4.77
C[C@H](O)CN(C[C@H](C)O)C(=O)c1cccc(Nc2nccc(Nc3ccc4ncsc4c3)n2)c1 [drawing 420]						4.72	4.85	4.68	4.51	4.51
O=C(c1cccc(Nc2nccc(Nc3ccc4ncsc4c3)n2)c1)N1CCCCCC1 [drawing 421]						< 4.00	5.05	4.60	5.05	4.09
Cc1cccc(Nc2nccc(Nc3cccc(C(=O)NC4CCN(C)CC4)c3)n2)c1 [drawing 422]						4.70	4.60	4.74	5.30	4.22
O=C(NCc1ccc(F)cc1)c1cccc(Nc2nccc(Nc3ccc4ncsc4c3)n2)c1 [drawing 423]						4.74	5.22	4.96	5.05	4.62
CC(C)CN(CC(C)C)C(=O)c1cccc(Nc2nccc(Nc3ccc4ncsc4c3)n2)c1 [drawing 424]						4.27	4.82	4.77	4.66	< 4.00
Cc1cccc(Nc2nccc(Nc3cccc(C(=O)N(C)CCCN(C)C)c3)n2)c1 [drawing 425]						< 4.00	4.41	4.34	4.05	< 4.00
O=C(COc1ccccc1)NCC(c1cccs1)S(=O)(=O)c1ccc(Cl)cc1 (stereo not drawn) [drawing 427]						< 4.00	< 4.00	4.44	4.08	4.35
Cc1cccc(C(=O)n2nc(-c3ccco3)nc2NCc2ccccc2)c1 [drawing 431]						< 4.00	< 4.00	< 4.00	< 4.00	< 4.00
O=C(c1ccccc1)n1nc(-c2ccco2)nc1NCc1ccc(Cl)cc1 [drawing 432]						< 4.00	< 4.00	< 4.00	< 4.00	< 4.00
O=C(NCC(c1cccs1)S(=O)(=O)c1ccc(F)cc1)c1ccccc1 (stereo not drawn) [drawing 434]						< 4.00	4.11	4.52	4.68	4.27
Clc1nccc(Nc2cc(C3CC3)[nH]n2)n1 [drawing 435]						4.20	4.35	4.54	< 4.00	4.51
Nc1ccc(Nc2nccc(Nc3cc(C4CC4)[nH]n3)n2)cc1 [drawing 436]						5.72	6.40	5.30	5.00	4.52
c1cc(Nc2cc(C3CC3)[nH]n2)nc(Nc2ccc(NCc3cc(C4OCCO4)c(C4OCCO4)s3)cc2)n1 [drawing 437]						4.85	4.89	4.89	4.85	4.74
O=C(c1cccc(Nc2nccc(Nc3ccc4ncsc4c3)n2)c1)N1CCCCC1 [drawing 438]						< 4.00	4.72	4.70	4.92	4.28
C[C@@H](Oc1cc(-c2cnn(C3CCNCC3)c2)cnc1N)c1c(Cl)ccc(F)c1Cl [drawing 491]						4.93	4.82	4.92	4.70	4.89

Further lines, with some results ahead:

pEC50 (glioblastoma cell lines)	pIC50 (EGFR)	pIC50 (ROS [2])	inhibition at 5 µM (ROS [2]) [%]	SMILES	pIC50 (ROS [1])	pEC50 [3]	pEC50 [4]	pEC50 [5]	pEC50 [6]	pEC50 [7]
	4.72	7.35	100	Nc1ccc(Nc2nccc(Nc3cc(C4CC4)[nH]n3)n2)cc1 [drawing 299]						
	< 4.30	5.94	79.3	c1cc(Nc2cc(C3CC3)[nH]n2)nc(Nc2ccc(NCc3cc(C4OCCO4)c(C4OCCO4)s3)cc2)n1 [drawing 300]						
	5.33	7.32	101	Nc1cccc(C2CCN(c3nccc(Nc4ccc5ncsc5c4)n3)CC2)c1 [drawing 302]						
	5.34	7.38	100	c1cc(Nc2nccc(Nc3ccc4ncsc4c3)n2)cc(C2CCNCC2)c1 [drawing 303]						
	< 5.30	7.77	90	Brc1cccc(Nc2nccc(Nc3ccc4ncsc4c3)n2)c1 [drawing 305]						
	< 5.30	7.15	87.9	O=C(c1ccc(Nc2ncc(Cl)c(Nc3ccc4ncsc4c3)n2)cc1)N1CCCCC1 [drawing 306]						
	< 5.30	6.39	92.2	CN1CCN(C(=O)c2ccc(Nc3ncc(Cl)c(Nc4ccc5ncsc5c4)n3)cc2)CC1 [drawing 307]						
	5.62	7.43	101	O=C(O)c1ccc(Nc2ncc(Cl)c(Nc3ccc4ncsc4c3)n2)cc1 [drawing 308]						
	< 5.30	< 5.30	29.4	CC(C)(C)OC(=O)NC1CCN(C(=O)c2ccc(Nc3ncc(Cl)c(Nc4ccc5ncsc5c4)n3)cc2)CC1 [drawing 309]						
	< 5.30	6.72	100	O=C(O)c1cccc(Nc2ncc(Cl)c(Nc3ccc4ncsc4c3)n2)c1 [drawing 325]						
	< 5.30	6.43	100	NCC1CCN(C(=O)c2ccc(Nc3ncc(Cl)c(Nc4ccc5ncsc5c4)n3)cc2)CC1 [drawing 326]						
	< 5.30	6.35	100	NC1CCN(C(=O)c2ccc(Nc3ncc(Cl)c(Nc4ccc5ncsc5c4)n3)cc2)CC1 [drawing 327]						
	< 5.30	6.62	100	O=C(c1cccc(Nc2ncc(Cl)c(Nc3ccc4ncsc4c3)n2)c1)N1CCCCC1 [drawing 328]						
	< 5.30	6.48	100	CN1CCN(C(=O)c2cccc(Nc3ncc(Cl)c(Nc4ccc5ncsc5c4)n3)c2)CC1 [drawing 329]						
	< 5.30	6.00	100	O=C(NCC1CCNCC1)c1ccc(Nc2ncc(Cl)c(Nc3ccc4ncsc4c3)n2)cc1 [drawing 331]						
	< 5.30	6.78	100	NC1CCN(C(=O)c2cccc(Nc3ncc(Cl)c(Nc4ccc5ncsc5c4)n3)c2)CC1 [drawing 332]						
	< 5.30	6.96	100	NCC1CCN(C(=O)c2cccc(Nc3ncc(Cl)c(Nc4ccc5ncsc5c4)n3)c2)CC1 [drawing 333]						
	< 5.30	6.42	100	O=C(NCC1CCNCC1)c1cccc(Nc2ncc(Cl)c(Nc3ccc4ncsc4c3)n2)c1 [drawing 334]						
